Results published in patent US20260315474A1 (BRISTOL-MYERS SQUIBB COMPANY, priority 2023, published 2026).

Legend:
[1] = cited from earlier work; for chronic clopidogrel vs aspirin monotherapy: atherosclerosis, including MI within 35 days
[2] = AXIOMATIC-SSP treatment discontinuation / completion; details: 200 mg BID, primarily due to AEs
Description: The study enrolled participants ≥40 years of age who had ischemic stroke or TIA. Ischemic stroke was defined as a neurological deficit attributable to a non-lacunar, acute brain infarction detected by neuroimaging and relevant to the clinical symptoms and National Institutes of Health Stroke Score (NIHSS)≤7 at the time of randomization. TIA was defined as acute onset neurological deficit attributable to focal ischemia of the brain by history or examination, with complete resolution of the deficit and no brain infarction on neuroimaging and ABCD score ≥6 or presence of motor symptoms. Evidence of relevant intracranial or cervical arterial atherosclerotic plaque, ulceration or thrombus in a feeding artery documented by imaging was required regardless of whether the index event was ischemic stroke or TIA, and all participants were required to have a Modified Rankin Score ≤3 before the index event. […] Following informed consent, participants received ASA 100 mg QD and a single loading dose of clopidogrel 300 mg if not already given as standard of care. […] A second MRI was performed on Day 90±6 days. All participants were required to remain on study treatment until the Day 90 MRI was performed up to Day 96.

[3] = Safety and tolerability of milvexian (thorough QT study / general); assay type: in vivo, human
Description: All 66 (100.0%) participants enrolled in the study received at least one entire dose of study intervention.

[4] = Population pharmacokinetic analysis of AXIOMATIC-SSP PK data; assay type: in vivo, human; details: 25 mg BID oral
[5] = Thorough QT study (QT/QTc interval, ECG); assay type: in vivo, human; details: for highest upper limit of 2-sided 90% CI for ΔΔQTcF: Day 1 and Day 4 postdose
[6] = AXIOMATIC-TKR Phase II trial; assay type: in vivo, human; details: 25 mg twice daily
Description: […]. […] (Weitz, et al., Milvexian for the Prevention of Venous Thromboembolism, N. Engl. […].

[7] = system: Factor XI; test: Factor XI clotting activity, AXIOMATIC-SSP; assay type: in vivo, human
Procedure: As used herein, “Factor XI Clotting Activity” is determined utilizing an aPTT-based 1-stage clotting time assay. Serial dilutions of normal pooled plasma are mixed with FXI-depleted plasma and the clotting times are measured according to standard aPTT protocol, to establish a reference range. Subject test plasma is treated in the same way and compared with the reference plasma.
In some embodiments, the Factor XI Clotting Activity is measured as follows: Factor XI (FXI) activity is measured using a modification of the activated partial thromboplastin time (aPTT) using Actin FS (Siemens Healthcare) on the Siemens BCS®XP analyzer. […]. The reference standard, at approximately 100%, is diluted by the BCS®XP analyzer in saline to generate pre-selected calibration levels of FXI. The calibration curve is plotted with FXI activity in percent (%) on the x-axis and clotting time in seconds on the y-axis. A log/lin regression curve fit is used. The samples to be tested are mixed with FXI deficient plasma (containing less than 1% FXI and at least 75% of all the other factors) to normalize all other factors. APTT reagent (Actin FS) is added and the mixture is incubated. Following incubation, calcium chloride is added to the mixture and the time to clot formation (measured optically) is compared to the time on the calibration curve. Samples are tested at the base dilution (1:10) prepared by the BCS®XP in saline. In other embodiments, formation of the fibrin clot is measured by mechanical methods (viscosity).
[…]. […] […].

[8] = system: Factor Xa; details: cited from earlier work
[9] = dose of 25 mg, 50 mg, or 100 mg
[10] = 25 mg BID, Day 21 anytime, N=233
[11] = 25 mg BID, Day 90 anytime, N=223
[12] = phase III, ACS patients, in combination with dual antiplatelet therapy

## CC(=O)Oc1ccccc1C(=O)O [aspirin]
[1]
  chronic clopidogrel vs aspirin monotherapy: comparable results
[1]; pooled randomized trials vs control, secondary prevention of ACS or chronic CAD
  risk and severity of recurrent MACE: reduces the risk and severity of early and late recurrent MACE

## COC(=O)[C@H](c1ccccc1Cl)N1CCc2sccc2C1 [clopidogrel]
[1]
  chronic clopidogrel vs aspirin monotherapy: comparable results

## C[C@@H]1CCC[C@H](n2cnc(-c3cc(Cl)ccc3-n3cc(Cl)nn3)cc2=O)c2cc(ccn2)-c2c(cnn2C(F)F)NC1=O [milvexian, (5R,9S)-9-(4-(5-chloro-2-(4-chloro-1H-1,2,3-triazol-1-yl)phenyl)-6-oxopyrimidin-1(6H)-yl)-2^1-(difluoromethyl)-5-methyl-2^1H-3-aza-1(4,2)-pyridina-2(5,4)-pyrazolacyclonaphan-4-one]
[2]
  early treatment discontinuation rate: 31.60%
[3]; administration according to the disclosure
  safety and tolerability: generally safe and well tolerated
[3]; whole study
  mean vital signs: no consistent or clinically relevant changes over time in mean vital signs
[4]
  steady state mean (std) Cmax: 346 (129) ng/mL
[4]; […]
  steady state mean (std) AUC0-24: 7290 (2940) ng*h/mL
[5]; 100 mg
  upper limits of all 2-sided 90% CIs of time-matched differences vs placebo in changes from baseline in QTcF: below 10 ms
  highest upper limit of 2-sided 90% CI for ΔΔQTcF: 5.16 ms
[5]; 100 mg twice daily
  upper limits of 90% CI for ΔΔQTcF at milvexian Tmax: below 10 ms
[5]; 100 mg twice daily as capsule
  upper bound of two-sided CI for largest ΔΔQTc (QTcF): less than 10 milliseconds
[5]; 200 mg
  upper limits of all 2-sided 90% CIs of time-matched differences vs placebo in changes from baseline in QTcF: below 10 ms
  highest upper limit of 2-sided 90% CI for ΔΔQTcF: 4.57 ms
[5]; 200 mg twice daily
  upper limits of 90% CI for ΔΔQTcF at milvexian Tmax: below 10 ms
[5]; 200 mg twice daily as solution
  upper bound of two-sided CI for largest ΔΔQTc (QTcF): less than 10 milliseconds
[5]; 100 and 200 mg
  effect on QT interval (QTcF), ICH E14: no effect of clinical or regulatory concern on the QT interval
  effect on QT interval (study-specific and Bazett's correction), ICH E14: no effect of clinical or regulatory concern on the QT interval
[5]; [9]
  QTc interval prolongation: no clinically significant QTc interval prolongation
  ΔΔQTc: less than 10 msec
[5]; therapeutic (100 mg) and supratherapeutic (200 mg)
  evidence of QT/QTc interval prolongation, ICH E14: does not show evidence of QT/QTc interval prolongation of clinical or regulatory concern
[5]; whole study
  ECG abnormalities reported as TEAE: No ECG abnormalities were reported as TEAE
  HR, RR interval, PR interval, QRS width: No consistent or clinically relevant changes over time were observed in HR, RR interval, PR interval, or QRS width
  treatment-emergent QTcF or QTcB values >480 ms or changes >60 ms: No treatment-emergent actual values of QTcF or QTcB>480 ms or changes from baseline >60 ms were observed
  treatment-emergent actual values of QTc>480 ms: No treatment-emergent actual values of QTc>480 ms were observed
  treatment-emergent changes from baseline of QTcF or QTcP>60 ms: No treatment-emergent changes from baseline of QTcF or QTcP>60 ms were observed
[6]
  efficacy compared with enoxaparin: comparable efficacy to enoxaparin
  safety profile compared with enoxaparin: favorable safety profile
[7]; 25 mg BID, Day 1 4 h, N=254
  FXI Clotting Activity percent change from baseline, mean: −7.21%
  FXI Clotting Activity percent change from baseline, median: −8.48%
  FXI Clotting Activity value, median: 100.0%
[7]; 25 mg BID, Day 1 12 h, N=241
  FXI Clotting Activity percent change from baseline, mean: −6.89%
  FXI Clotting Activity percent change from baseline, median: −7.63%
[7]; 25 mg BID, Day 1 24 h, N=253
  FXI Clotting Activity percent change from baseline, mean: −9.69%
  FXI Clotting Activity percent change from baseline, median: −11.30%
[7]; [10]
  FXI Clotting Activity percent change from baseline, mean: −18.1%
  FXI Clotting Activity percent change from baseline, median: −19.10%
[7]; [11]
  FXI Clotting Activity percent change from baseline, mean: −17.7%
  FXI Clotting Activity percent change from baseline, median: −20.16%
[7]; milvexian treated groups
  dose-response of Factor XI clotting activity: dose-dependent decreases in the Factor XI clotting activity

## COc1c(N2C[C@@H]3CCCN[C@@H]3C2)c(F)cc2c(=O)c(C(=O)O)cn(C3CC3)c12 [moxifloxacin, reference compound]
[5]; following moxifloxacin
  participants with treatment-emergent change from baseline of QTcB>60 ms, number: One
  participants with treatment-emergent change from baseline of QTcB>60 ms, percent: 1.7%
[5]; single dose 400 mg moxifloxacin
  assay sensitivity (QTc, positive control): Assay sensitivity for moxifloxacin was also demonstrated

## O=C(NC[C@H]1CN(c2ccc(N3CCOCC3=O)cc2)C(=O)O1)c1ccc(Cl)s1 [rivaroxaban]
[8]; [12]
  risk of death from cardiovascular causes, myocardial infarction, and stroke: reduced the risk of death from cardiovascular causes, myocardial infarction, and stroke
  risk of major bleeding: increased the risk of major bleeding
[8]; post-ACS care
  bleeding risks: increased bleeding risks
  cardiovascular events: reduced cardiovascular events
  thrombin generation: decreased thrombin generation
